# Results as given in patent publication US9103833B2, “Use of the GTPase Rab27B to diagnose and treat poor prognosis estrogen-receptor-positive breast cancer” (Universiteit Gent, priority 2009, dated 2015).
# Tests used:
# MCF-7 GFP-Rab27B cells = experiment: type I collagen invasion assay; assay type: cell-based; conditions: Homo sapiens, MCF7, 24 hours, MCF-7 GFP-Rab27B cells on type I collagen, P<0.001
# Procedure: (§1) For the type I collagen invasion assay, the following precooled components were gently combined and defined as type I collagen solution: four volumes of type I collagen (stock is 3.49 mg/mL), five volumes of calcium- and magnesium-free Hank's balanced salt solution, one volume of MEM (10×), one volume of 0.25 M NaHCO3, 2.65 volumes of culture medium and 0.3 volumes of 1 M NaOH. For each test-condition, 1.25 mL of type I collagen solution was added to one well of 6-well plate, homogeneously spread and gelified on a flat surface in a humidified atmosphere of 10% CO2 in air at 37° C. for at least one hour. […]
# (§2) Cell morphology was studied and invasion was scored after 24 hours (De Wever et al., (44)). […] It was calculated as (perimeter)^2÷(4π area), which describes the deviation of an object from a geometric circle. […] The number of invasive and non-invasive cells was counted in ten randomly selected microscopic fields with a 20× objective and 10× eye piece by two blinded observers using an inverted phase contrast microscope (DMI 3000B, Leica, Wetzlar, Germany). The invasion index was calculated as the ratio of the number of cells that invaded the gel divided by the total number of cells counted in each field. […]
# [1] = test system: cyclin A in MCF-7 GFP cells; experiment: cyclin A expression with recombinant HSP90α, Western blot; assay type: cell-based, human; conditions: 10 μg/mL
# Procedure: For Western blot analysis MCF-7 cells (1-10×10^6) were harvested in Laemmli lysis buffer (0.125 M Tris-HCl [pH=6.8], 10% glycerol, 2.3% SDS). Cell lysates (25 μg) and CM (20 μL) were suspended in 10 μL reducing sample buffer (1M Tris-HCl [pH=6.8], 30% glycerol, 6% SDS, 3% β-mercaptoethanol, 0.005% bromophenol blue) and boiled for 5 minutes at 95° C. Samples were run on NuPage 4-20% Bis-Tris gradient gels (Invitrogen), transferred to PVDF membranes, blocked in 5% non-fat milk in PBS with 0.5% Tween-20, and immunostained. Scanning densitometry was carried out with the Quantity One Program (Bio-Rad).
# MCF-7 cells = experiment: type I collagen invasion assay with recombinant HSP90 proteins; assay type: cell-based, human; conditions: 24 hours
# Procedure: as §1, §2
# MCF-7 GFP cells = experiment: cell proliferation assay with recombinant HSP90α; assay type: cell-based, human; conditions: 10 μg/mL added to culture medium; P<0.001
# Procedure: To examine whether Rab27B affects cell proliferation in a GTP-, geranylgeranyl-, and HSP90α-dependent manner, three sets of experiments were conducted: 1) proliferation rates of MCF-7 cells stably expressing GFP, GFP-Rab27B, GFP-Rab27B Q78L, GFP-Rab27B T23N, and GFP-Rab27B GER were compared; 2) proliferation rates of MCF-7 GFP-Rab27B cells transiently targeted with control or Rab27B siRNAs were studied; and 3) proliferation rates of MCF-7 GFP cells, treated with recombinant HSP90α, and MCF-7 GFP-Rab27B cells, challenged with control IgG or anti-HSP90α neutralizing antibody, were evaluated. To obtain a growth curve under each condition, triplicate wells of seeded cells were each counted five times. Two investigators independently counted the total number of cells in each well every 2 days for a total of 8 days with the use of a manual hemocytometer.
compound,measurement,setting,value
COC1=C2C[C@@H](C)C[C@H](OC)[C@H](O)[C@@H](C)/C=C(\C)[C@H](OC(N)=O)[C@@H](OC)/C=C\C=C(/C)C(=O)NC(=CC1=O)C2=O [geldanamycin],inhibition at 1 µM,MCF-7 GFP-Rab27B cells,85 to 100%
recombinant HSP90α: HSP90α recombinant protein obtained from Stressgen,cyclin A expression,[1],increased cyclin A expression
same,type I collagen invasion,"MCF-7 cells; 1-10 μg/mL recombinant protein, P=0.04 at 5 μg/mL, P=0.003 at 10 μg/mL",dose-dependent increase
same,proliferation of MCF-7 cells,MCF-7 GFP cells,increased proliferation
recombinant HSP90β: HSP90β recombinant protein obtained from Stressgen,type I collagen invasion,MCF-7 cells; 10 μg/mL recombinant protein,no effect
